Patent US4183920A, “4-N-Acyl, 2'-N-acyl and 4,2'-N,N'-diacylfortimicin E derivatives” (Abbott Laboratories, priority 1977, dated 1980)
Structures can show the parent of a compound that is named as a salt. Where two headings read alike, the source gives them in different places.

How the values were obtained:
Test in all cases: In vitro antibiotic activity, 2-fold agar dilution method
Type in all cases: cell-based
Sal. typhimurium Ed #9 = conditions: Salmonella enterica
Procedure: (§1) The in vitro antibiotic activity is determined by a 2-fold agar dilution method using 10 ml. per petri plate of Mueller-Hinton agar. The agar is inoculated with one loopful (0.001 ml. loop) of a 1:10 dilution of a 24 hour broth culture of the indicated test organism and incubated at 37° C. for 24 hours. Minimum inhibitory concentrations (MIC) are expressed as mcg/ml.

E. coli R3 = conditions: Escherichia coli
Procedure: as §1

Pseudo aeruginosa = tested on: Pseudo aeruginosa
Procedure: as §1

[1] = tested on: Bacillus subtilus U. Ill. 10707
Procedure: as §1

Strep. faecalis 10541 = tested on: Strep. faecalis 10541
Procedure: as §1

E. coli Juhl = conditions: Escherichia coli
Procedure: as §1

Staph aureus Smith = conditions: Staphylococcus aureus
Procedure: as §1

Shigella sonnei 9290 = conditions: Mueller-Hinton agar, 37° C., 24 hours
Procedure: as §1

Kleb. pneumoniae KY 4262 = conditions: Klebsiella pneumoniae
Procedure: as §1

Proteus vulgaris JJ = tested on: Proteus vulgaris JJ
Procedure: as §1

[2] = Sal. typhimurium Ed #9, Mueller-Hinton agar, 37° C., 24 hours, read-out: MIC
[3] = E. coli R3, Mueller-Hinton agar, 37° C., 24 hours, read-out: MIC
[4] = Pseudo aeruginosa, Mueller-Hinton agar, 37° C., 24 hours, read-out: MIC
[5] = Bacillus subtilus U. Ill. 10707, Mueller-Hinton agar, 37° C., 24 hours, read-out: MIC
[6] = Enterococcus faecalis, Strep. faecalis 10541, Mueller-Hinton agar, 37° C., 24 hours, read-out: MIC
[7] = E. coli Juhl, Mueller-Hinton agar, 37° C., 24 hours, read-out: MIC
[8] = Staph aureus Smith, Mueller-Hinton agar, 37° C., 24 hours, read-out: MIC
[9] = KY4262, Kleb. pneumoniae KY 4262, Mueller-Hinton agar, 37° C., 24 hours, read-out: MIC
[10] = Proteus vulgaris JJ, Mueller-Hinton agar, 37° C., 24 hours, read-out: MIC

`COC1C(O)C(N)C(OC2OC(C(C)N)CCC2N)C(O)C1N(C)C(=O)[C@@H](O)CCN` (stereo partly drawn) [4-N-L-(2-hydroxy-4-amino)butyrylfortimicin E tetrahydrochloride salt] was tested. Which MIC (Sal. typhimurium Ed #9; [2]) did it give?
The MIC was 100 µg/mL.

And the MIC (E. coli R3; [3])?
The MIC was over 100 µg/mL.

What about the MIC (Pseudo aeruginosa; [4]) of the same compound?
Its MIC is over 100 µg/mL.

And the MIC [1, 5]?
The MIC was 12.5 µg/mL.

What about the MIC (Strep. faecalis 10541; [6]) of the same compound?
The MIC was over 100 µg/mL.

What about the MIC (E. coli Juhl; [7]) of the same compound?
The MIC was 50 µg/mL.

What about the MIC (Staph aureus Smith; [8]) of the same compound?
Its MIC is 25 µg/mL.

What about the MIC (Shigella sonnei 9290) of the same compound?
The MIC was over 100 µg/mL.

What about the MIC (Kleb. pneumoniae KY 4262; [9]) of the same compound?
Its MIC is 50 µg/mL.

What about the MIC (Proteus vulgaris JJ; [10]) of the same compound?
The MIC was over 100 µg/mL.

With `COC1C(O)C(N)C(OC2OC(C(C)N)CCC2N)C(O)C1N(C)C(=O)CN` (stereo not shown) [4-N-glycylfortimicin E tetrahydrochloride salt] as the compound, how does the MIC (Sal. typhimurium Ed #9; TYPHIMURIUM, 24 h) read?
The MIC was 25 µg/mL.

What about the MIC (E. coli R3; R3, 24 h) of the same compound?
The MIC was over 100 µg/mL.

What about the MIC (Pseudo aeruginosa; 24 h) of the same compound?
Its MIC is over 100 µg/mL.

What about the MIC ([1]; Bacillus, U.ILL.10707, 24 h) of the same compound?
Its MIC is 12.5 µg/mL.

What about the MIC (Strep. faecalis 10541; Enterococcus faecalis, 10541, 24 h) of the same compound?
Its MIC is over 100 µg/mL.

What about the MIC (E. coli Juhl; 24 h) of the same compound?
The MIC was 6.25 µg/mL.

What about the MIC (Staph aureus Smith; 24 h) of the same compound?
Its MIC is 6.25 µg/mL.

What about the MIC (Shigella sonnei 9290) of the same compound?
The MIC was 25 µg/mL.

What about the MIC (Kleb. pneumoniae KY 4262; KY4262, 24 h) of the same compound?
Its MIC is 25 µg/mL.

What about the MIC (Proteus vulgaris JJ; Proteus vulgaris, 24 h) of the same compound?
Its MIC is over 100 µg/mL.

Which MIC (Sal. typhimurium Ed #9; [2]) does the source give for `CNCC(=O)N(C)C1C(O)C(OC2OC(C(C)N)CCC2N)C(N)C(O)C1OC` (stereo not shown) [4-N-sarcosylfortimicin E tetrahydrochloride salt] here?
The MIC was 50 µg/mL.

What about the MIC (E. coli R3; [3]) of the same compound?
The MIC was over 100 µg/mL.

And the MIC (Pseudo aeruginosa; [4])?
The MIC was over 100 µg/mL.

And the MIC [1, 5]?
Its MIC is 6.25 µg/mL.

What about the MIC (Strep. faecalis 10541; [6]) of the same compound?
The MIC was over 100 µg/mL.

And the MIC (E. coli Juhl; [7])?
Its MIC is 50 µg/mL.

What about the MIC (Staph aureus Smith; [8]) of the same compound?
Its MIC is 25 µg/mL.

And the MIC (Shigella sonnei 9290)?
The MIC was 100 µg/mL.

And the MIC (Kleb. pneumoniae KY 4262; [9])?
Its MIC is 100 µg/mL.

And the MIC (Proteus vulgaris JJ; [10])?
Its MIC is over 100 µg/mL.

With `COC1C(O)C(N)C(OC2OC(C(C)N)CCC2N)C(O)C1N(C)C(=O)CCN` (stereo not drawn) [4-N-β-alanylfortimicin E tetrahydrochloride salt] as the compound, how does the MIC (Sal. typhimurium Ed #9; [2]) read?
Its MIC is 25 µg/mL.

What about the MIC (E. coli R3; [3]) of the same compound?
Its MIC is over 100 µg/mL.

What about the MIC (Pseudo aeruginosa; [4]) of the same compound?
Its MIC is over 100 µg/mL.

And the MIC [1, 5]?
The MIC was 12.5 µg/mL.

What about the MIC (Strep. faecalis 10541; [6]) of the same compound?
The MIC was over 100 µg/mL.

And the MIC (E. coli Juhl; [7])?
The MIC was 25 µg/mL.

And the MIC (Staph aureus Smith; [8])?
The MIC was 12.5 µg/mL.

What about the MIC (Shigella sonnei 9290) of the same compound?
Its MIC is over 100 µg/mL.

And the MIC (Kleb. pneumoniae KY 4262; [9])?
Its MIC is 25 µg/mL.

What about the MIC (Proteus vulgaris JJ; [10]) of the same compound?
Its MIC is over 100 µg/mL.
